Source: patent US8426447B2, “Spiro-tricyclic ring compounds as beta-secretase modulators and methods of use” (Amgen Inc., priority 2008, dated 2013)
One block for each compound: values may come before it.

What was measured:
BACE1 [1] = molecular target: T1, BACE1 (Homo sapiens, UniProt P56817); experiment: In Vitro Enzymatic BACE FRET (Fluorescence Resonance Energy Transfer) Assay; format: biochemical; details: read-out: BACE1 FRET assay
In short: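 Acetate buffer at pH 4.2 with 10% DMSO and 100 uM genapol hosts the enzymatic reaction, initiated by 50 nM FRET substrate and allowed to proceed one hour. Tris quench to neutral pH precedes the fluorescence measurement.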

BACE1 [2] = molecular target: T1, BACE1; experiment: In Vitro BACE Cell-based Assay (HEK cell assay): Aβ40 in conditioned medium of cells stably expressing Amyloid Precursor Protein, sandwich ELISA; details: read-out: HEK cell assay
In short: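 Read-out is time-resolved fluorescence of Aβ40 in supernatant, captured by pAb40 and detected with biotinylated 6E10 plus Streptavidin-Europium. Cells stably expressing APP received compounds for 24 h over 10 concentrations starting at 100 μM or 10 μM, final DMSO 0.1%.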

[3] = in vitro BACE FRET enzyme assay, IC50 class symbols
[4] = HEK cell-based assay, Aβ40 in conditioned medium, IC50 class symbols

T1 sequence (P56817 46-501, species assumed): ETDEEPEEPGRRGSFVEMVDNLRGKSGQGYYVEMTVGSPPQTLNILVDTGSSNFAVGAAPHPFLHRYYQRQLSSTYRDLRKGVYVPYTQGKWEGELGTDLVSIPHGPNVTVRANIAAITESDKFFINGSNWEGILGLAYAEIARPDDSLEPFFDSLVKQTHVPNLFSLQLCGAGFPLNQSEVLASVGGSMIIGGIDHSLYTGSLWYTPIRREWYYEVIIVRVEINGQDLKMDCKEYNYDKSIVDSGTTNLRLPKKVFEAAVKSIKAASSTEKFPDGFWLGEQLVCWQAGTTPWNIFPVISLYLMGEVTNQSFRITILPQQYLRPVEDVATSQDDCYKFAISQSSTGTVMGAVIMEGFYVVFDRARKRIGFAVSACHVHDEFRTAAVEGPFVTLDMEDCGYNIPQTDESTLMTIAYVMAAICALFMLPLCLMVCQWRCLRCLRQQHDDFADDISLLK

- IC50 (BACE1 [1]): 0.1 to 1 µM
- IC50 (BACE1 [2]): 0.1 to 1 µM
SMILES: CCOc1ccc(-c2cnc3c(c2)[C@]2(COC(N)=N2)c2cc(OC)ccc2O3)cn1 [compound 667]

- IC50 (BACE1 [1]; Table IV, class symbols): 1 to 5 µM
- IC50 (BACE1 [2]; Table IV, class symbols): > 5 µM
SMILES: NC1=N[C@]2(CO1)c1ccccc1Oc1ccc(-c3cc4ccccc4[nH]3)cc12 [compound 567]

- IC50 (BACE1 [1]; Table II): < 0.1 µM
- IC50 (BACE1 [2]; Table II, Aβ40, 24 h incubation): 1 to 5 µM
SMILES: CC(C)(C)COc1ccc2c(c1)[C@]1(COC(N)=N1)c1cc(-c3ccccc3)ccc1O2 [Example 85, (4S)-2′-(2,2-dimethylpropoxy)-7′-phenylspiro[1,3-oxazole-4,9′-xanthen]-2-amine]

- IC50 (BACE1 [1]; Table IV, class symbols): 0.1 to 1 µM
- IC50 (BACE1 [2]; Table IV, class symbols): > 5 µM
SMILES: COc1ccc(-c2ccc3c(c2)[C@@]2(COC(N)=N2)c2cc(OCC(C)(C)C)ccc2O3)c(OC)n1 [compound 909]

- IC50 (BACE1 [1]; Table IV, class symbols): 1 to 5 µM
- IC50 (BACE1 [2]; Table IV, class symbols): 1 to 5 µM
SMILES: COc1ccc2c(c1)[C@]1(COC(N)=N1)c1cc(-c3cccc4cccnc34)ccc1O2 [compound 590]

- IC50 (BACE1 [1]; Table IV, class symbols): > 5 µM
- IC50 (BACE1 [2]; Table IV, class symbols): 1 to 5 µM
SMILES: NC1=N[C@]2(CO1)c1cc(-c3cc4ccccc4s3)ccc1Oc1ncccc12 [compound 618]

- IC50 (BACE1 [1]): < 0.1 µM
- IC50 (BACE1 [2]): < 0.1 µM
SMILES: Cc1cc(-c2ccc3c(c2)[C@]2(COC(N)=N2)c2cc(-c4cccnc4)ccc2O3)on1 [compound 693]

- IC50 (BACE1 [1]; Table IV, class symbols): 0.1 to 1 µM
- IC50 (BACE1 [2]; Table IV, class symbols): 1 to 5 µM
SMILES: COc1ccc2c(c1)[C@@]1(COC(N)=N1)c1c(ccc(-c3cncnc3)c1F)O2 [compound 899]

- IC50 (BACE1 [1]; [3]): < 0.1 µM
- IC50 (BACE1 [2]; [4]): < 0.1 µM
SMILES: N#Cc1ccc(-c2cc3c(cn2)Oc2ccc(-c4cccnc4F)cc2[C@@]32COC(N)=N2)cc1 [compound 372]

- IC50 (BACE1 [1]): < 0.1 µM
- IC50 (BACE1 [2]): 0.1 to 1 µM
SMILES: CC(C)(C)COc1ccc2c(c1)[C@@]1(COC(N)=N1)c1cc(-c3cncs3)ccc1O2 [compound 781]

- IC50 (BACE1 [1]): 0.1 to 1 µM
- IC50 (BACE1 [2]): 1 to 5 µM
SMILES: CC(=O)c1ccccc1-c1ccc2c(c1)[C@@]1(COC(N)=N1)c1cc(OCC(C)(C)C)ccc1O2 [compound 974]

- IC50 (BACE1 [1]; Table IV, class symbols): < 0.1 µM
- IC50 (BACE1 [2]; Table IV, class symbols): 0.1 to 1 µM
SMILES: NC1=NC2(CO1)c1cc(-c3ccccc3)ccc1Oc1ccc(-c3ccccc3)cc12 [compound 532]

- IC50 (BACE1 [1]; Table III, IC50's in uM ranges): < 0.1 µM
- IC50 (BACE1 [2]; Table III, IC50's in uM ranges): < 0.1 µM
SMILES: CCOC(C)(C)COc1ccc2c(c1)[C@]1(COC(N)=N1)c1cc(-c3cccnc3)ccc1O2 [compound 172]

- IC50 (BACE1 [1]; Table 1): > 5 µM
- IC50 (BACE1 [2]; Table 1, Aβ40, 24 h incubation): > 5 µM
SMILES: COc1cccc(-c2ccc3c(c2)C2(COC(N)=N2)c2ccc(C)cc2O3)c1F (stereo not shown) [Example 30, 2′-(2-fluoro-3-methoxyphenyl)-6′-methylspiro[1,3-oxazole-4,9′-xanthen]-2-amine]

More lines, now with the values behind:

SMILES: NC1=N[C@]2(CO1)c1cc(OCC(O)(C(F)(F)F)C(F)(F)F)ccc1Oc1ccc(-c3cccnc3)cc12 [compound 894]
- IC50 (BACE1 [1]; Table IV, class symbols): < 0.1 µM
- IC50 (BACE1 [2]; Table IV, class symbols): 0.1 to 1 µM

SMILES: CC(C)(C)COc1ccc2c(c1)[C@@]1(COC(N)=N1)c1cc(-c3ccc(OCC4CC4)nc3)cnc1O2 [compound 741]
- IC50 (BACE1 [1]): < 0.1 µM
- IC50 (BACE1 [2]): < 0.1 µM

SMILES: CC(C)(C)C#Cc1ccc2c(c1)[C@]1(COC(N)=N1)c1cc(-c3cccnc3)cnc1O2 [compound 896]
- IC50 (BACE1 [1]; Table IV, class symbols): 0.1 to 1 µM
- IC50 (BACE1 [2]; Table IV, class symbols): 1 to 5 µM

SMILES: CC(C)(C)CC(O)c1ccc2c(c1)[C@]1(COC(N)=N1)c1cc(-c3ccc(F)nc3)ccc1O2 (stereo partly shown) [162a]
- IC50 (BACE1 [1]; Table III, IC50's in uM ranges): 0.1 to 1 µM
- IC50 (BACE1 [2]; Table III, IC50's in uM ranges): 0.1 to 1 µM

SMILES: COc1ccc2c(c1)[C@@]1(COC(N)=N1)c1cc(-c3cncnc3)cnc1O2 [compound 669]
- IC50 (BACE1 [1]): 1 to 5 µM
- IC50 (BACE1 [2]): 1 to 5 µM

SMILES: NC1=N[C@]2(CO1)c1cc(OCC3CCOC3)ccc1Oc1ccc(-c3cncnc3)cc12 (stereo partly drawn) [Example 132, (S)-2′-(pyrimidin-5-yl)-7′-((tetrahydrofuran-3-yl)methoxy)-5H-spiro[oxazole-4,9′-xanthen]-2-amine]
- IC50 (BACE1 [1]; Table III, IC50's in uM ranges): 1 to 5 µM
- IC50 (BACE1 [2]; Table III, IC50's in uM ranges): > 5 µM

SMILES: COc1ccc2c(c1)[C@]1(N=C(N)O[C@@H]1C)c1cc(-c3cncnc3)ccc1O2 (single isomer, unassigned) [Example 125c]
- IC50 (BACE1 [1]; Table III, IC50's in uM ranges): > 5 µM
- IC50 (BACE1 [2]; Table III, IC50's in uM ranges): > 5 µM

SMILES: COC(C)(C)C#Cc1cc(F)c2c(c1)[C@@]1(COC(N)=N1)c1cc(-c3ccc(F)nc3)ccc1O2 [compound 645]
- IC50 (BACE1 [1]; Table IV, class symbols): 0.1 to 1 µM
- IC50 (BACE1 [2]; Table IV, class symbols): 1 to 5 µM

SMILES: CC(C)(O)COc1ccc2c(c1)[C@]1(COC(N)=N1)c1cc(C#CC3CC3)ccc1O2 [compound 937]
- IC50 (BACE1 [1]): < 0.1 µM
- IC50 (BACE1 [2]): 0.1 to 1 µM

SMILES: Cc1cncc(-c2ccc3c(c2)[C@@]2(COC(N)=N2)c2cc(N4CCOCC4)ncc2O3)c1 [compound 325]
- IC50 (BACE1 [1]; [3]): < 0.1 µM
- IC50 (BACE1 [2]; [4]): < 0.1 µM

SMILES: Cc1cc(-c2ccc3c(c2)[C@]2(COC(N)=N2)c2cc(-c4ccc(F)nc4)ccc2O3)on1 [compound 565]
- IC50 (BACE1 [1]; Table IV, class symbols): < 0.1 µM
- IC50 (BACE1 [2]; Table IV, class symbols): 0.1 to 1 µM

SMILES: COc1cc2c(cc1F)Oc1ccc(-c3cncnc3)cc1[C@]21COC(N)=N1 [154a]
- IC50 (BACE1 [1]; Table III, IC50's in uM ranges): > 5 µM
- IC50 (BACE1 [2]; Table III, IC50's in uM ranges): > 5 µM
